What was measured:
[1] = target: T1, Mouse urotensin (mUR2) (Mus musculus, UniProt Q8VIH9); assay: Radioligand binding, mouse urotensin mUR2 membranes, FlashPlate, [125I]-Urotensin II; settings: compound at 10 μM; for A11: inhibition of radioligand binding, mouse urotensin (mUR2) / A11: inhibition of radioligand binding: [125I]-Urotensin II; for A11: inhibition of radioligand binding: FlashPlate
T1 construct: purchased Perkin Elmer Biosignal
T1 sequence (Q8VIH9 1-385): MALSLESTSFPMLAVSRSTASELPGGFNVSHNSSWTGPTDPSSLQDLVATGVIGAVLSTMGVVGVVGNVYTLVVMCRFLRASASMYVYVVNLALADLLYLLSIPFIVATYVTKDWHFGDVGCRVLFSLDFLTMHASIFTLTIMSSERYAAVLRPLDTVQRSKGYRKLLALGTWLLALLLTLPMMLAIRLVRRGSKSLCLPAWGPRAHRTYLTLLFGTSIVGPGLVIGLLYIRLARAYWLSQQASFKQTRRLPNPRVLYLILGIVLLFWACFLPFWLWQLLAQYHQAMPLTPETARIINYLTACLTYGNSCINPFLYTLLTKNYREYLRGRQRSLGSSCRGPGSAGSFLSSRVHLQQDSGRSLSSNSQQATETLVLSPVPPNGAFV
Outline: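 Cloned mouse urotensin (mUR2) receptor membranes from Perkin Elmer Biosignal were immobilized in FlashPlate microplates using a proprietary coating. Each well got 19.5 μl buffer, then 0.5 μl of DMSO, reference ligand, or compound. Adding 5 μl of [125I]-Urotensin II, diluted to 5× final concentration in binding buffer, started binding. Plates were sealed with TopSeal-A and incubated 1 hour at room temperature in the dark. Wells were counted for 30 seconds each on a TopCount after a 60-second delay, and percentage inhibition was calculated.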

[2] = target: T2, Human neurokinin (NK1) (Homo sapiens, UniProt P25103); assay: Radioligand binding, human neurokinin NK1 membranes, filtration, [125I]-Substance P; settings: compound at 10 μM; for A8: inhibition of radioligand binding, human neurokinin (NK1) / A8: inhibition of radioligand binding: [125I]-Substance P; for A8: inhibition of radioligand binding: filtration
T2 construct: purchased Perkin Elmer Biosignal
T2 sequence (P25103 whole entry): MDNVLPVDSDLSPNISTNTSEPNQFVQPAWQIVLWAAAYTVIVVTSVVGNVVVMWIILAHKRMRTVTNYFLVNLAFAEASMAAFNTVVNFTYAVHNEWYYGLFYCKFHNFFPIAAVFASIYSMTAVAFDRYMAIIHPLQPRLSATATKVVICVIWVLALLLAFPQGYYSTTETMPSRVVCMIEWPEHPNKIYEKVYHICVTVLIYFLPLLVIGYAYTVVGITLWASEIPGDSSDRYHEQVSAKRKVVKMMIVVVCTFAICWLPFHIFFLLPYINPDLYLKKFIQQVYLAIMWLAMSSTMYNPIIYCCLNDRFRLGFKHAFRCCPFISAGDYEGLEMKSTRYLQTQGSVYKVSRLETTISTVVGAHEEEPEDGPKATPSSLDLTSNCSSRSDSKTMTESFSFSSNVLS
Outline: (§1)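 Membranes from cloned human receptors were incubated with compound and radioligand for 1 hour at room temperature. Bound ligand was collected on 0.3% PEI-soaked filters, washed with cold 50 mM Tris-HCl pH 7.4, and counted by scintillation. Percent inhibition was computed against DMSO totals and reference-ligand nonspecific wells.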

[3] = target: T3, Human melanocortin (MC5) (Homo sapiens, UniProt P33032); assay: Radioligand binding, human melanocortin MC5 membranes, FlashPlate, [125I]-NDP-αMSH; settings: compound at 10 μM; for A5: inhibition of radioligand binding, human melanocortin (MC5) / A5: inhibition of radioligand binding: [125I]-NDP-αMSH; for A5: inhibition of radioligand binding: FlashPlate
T3 construct: purchased Perkin Elmer Biosignal
T3 sequence (P33032 whole entry): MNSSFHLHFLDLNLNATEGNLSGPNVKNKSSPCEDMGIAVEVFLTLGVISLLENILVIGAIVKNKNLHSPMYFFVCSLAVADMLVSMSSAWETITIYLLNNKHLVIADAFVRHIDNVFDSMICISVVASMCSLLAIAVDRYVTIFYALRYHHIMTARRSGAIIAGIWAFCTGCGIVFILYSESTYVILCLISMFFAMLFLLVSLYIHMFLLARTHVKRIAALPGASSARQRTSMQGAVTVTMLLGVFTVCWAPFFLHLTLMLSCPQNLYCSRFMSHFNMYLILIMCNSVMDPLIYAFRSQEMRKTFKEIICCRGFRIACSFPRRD
Outline: (§2)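 Cloned human receptor membranes were coated onto FlashPlate wells and incubated with radioligand and compound (added from a 0.5 mM DMSO daughter plate) for 1 hour at room temperature in the dark. Scintillation counting gave percent inhibition, with DMSO defining total and reference ligand defining non-specific binding.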

[4] = target: T4, Human κ-Opioid (KOP) (Homo sapiens, UniProt P41145); assay: Radioligand binding, human κ-opioid (KOP) membranes, filtration, [3H]-Diprenorphine; settings: compound at 10 μM; for A2: inhibition of radioligand binding, human κ-opioid (KOP) / A2: inhibition of radioligand binding: [3H]-Diprenorphine; for A2: inhibition of radioligand binding: filtration
T4 construct: purchased Perkin Elmer Biosignal
T4 sequence (P41145 whole entry): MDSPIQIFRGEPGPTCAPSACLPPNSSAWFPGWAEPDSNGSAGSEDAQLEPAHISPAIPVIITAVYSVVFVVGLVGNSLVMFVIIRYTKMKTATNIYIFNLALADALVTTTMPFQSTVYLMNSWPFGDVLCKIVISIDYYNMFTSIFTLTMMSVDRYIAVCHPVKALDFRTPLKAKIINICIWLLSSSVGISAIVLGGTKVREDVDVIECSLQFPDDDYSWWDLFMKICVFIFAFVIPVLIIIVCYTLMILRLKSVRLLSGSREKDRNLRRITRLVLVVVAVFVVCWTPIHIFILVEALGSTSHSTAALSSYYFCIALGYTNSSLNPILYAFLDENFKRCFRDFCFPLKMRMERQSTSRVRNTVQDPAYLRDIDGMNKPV
Outline: as §1

[5] = target: T5, Human δ-opioid (DOP) (Homo sapiens, UniProt P41143); assay: Radioligand binding, human δ-opioid (DOP) membranes, FlashPlate, [3H]-Bremazocine; settings: compound at 10 μM; for A1: inhibition of radioligand binding, human δ-opioid (DOP) / A1: inhibition of radioligand binding: [3H]-Bremazocine; for A1: inhibition of radioligand binding: FlashPlate
T5 construct: purchased Perkin Elmer Biosignal
T5 sequence (P41143 whole entry): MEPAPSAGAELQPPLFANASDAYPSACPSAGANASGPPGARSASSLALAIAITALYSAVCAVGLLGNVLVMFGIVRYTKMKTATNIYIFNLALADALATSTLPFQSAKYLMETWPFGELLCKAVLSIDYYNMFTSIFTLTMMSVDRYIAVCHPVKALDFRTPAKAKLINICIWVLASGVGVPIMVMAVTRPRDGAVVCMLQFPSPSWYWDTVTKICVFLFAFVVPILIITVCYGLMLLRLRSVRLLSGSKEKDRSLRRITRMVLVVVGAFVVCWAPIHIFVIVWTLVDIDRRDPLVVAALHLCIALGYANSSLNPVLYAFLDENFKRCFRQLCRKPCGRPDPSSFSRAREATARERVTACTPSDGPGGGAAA
Outline: as §2

[6] = target: T6, Human neuropeptide Y (NPY-Y1) (Homo sapiens, UniProt P25929); assay: Radioligand binding, human neuropeptide Y NPY-Y1 membranes, FlashPlate, [125I]-PYY; settings: compound at 10 μM; for A9: inhibition of radioligand binding, human neuropeptide Y (NPY-Y1) / A9: inhibition of radioligand binding: [125I]-PYY; for A9: inhibition of radioligand binding: FlashPlate
T6 construct: purchased Perkin Elmer Biosignal
T6 sequence (P25929 1-384): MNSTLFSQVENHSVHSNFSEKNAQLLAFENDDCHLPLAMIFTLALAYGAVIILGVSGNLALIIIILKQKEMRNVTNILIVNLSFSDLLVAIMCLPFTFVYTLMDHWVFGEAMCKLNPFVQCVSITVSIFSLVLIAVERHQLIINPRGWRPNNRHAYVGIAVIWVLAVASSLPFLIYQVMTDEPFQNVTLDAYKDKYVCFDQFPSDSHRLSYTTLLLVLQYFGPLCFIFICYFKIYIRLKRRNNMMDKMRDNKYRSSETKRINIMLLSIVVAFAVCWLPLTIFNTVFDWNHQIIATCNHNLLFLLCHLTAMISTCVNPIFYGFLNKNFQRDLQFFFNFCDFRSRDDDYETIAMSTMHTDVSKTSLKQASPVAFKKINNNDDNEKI
Outline: as §2

[7] = target: T7, Human μ-opioid (MOP) (Homo sapiens, UniProt P35372); assay: Radioligand binding, human μ-opioid (MOP) membranes, FlashPlate, [3H]-Naloxone; settings: compound at 10 μM; for A7: inhibition of radioligand binding, human μ-opioid (MOP) / A7: inhibition of radioligand binding: [3H]-Naloxone; for A7: inhibition of radioligand binding: FlashPlate
T7 construct: purchased Perkin Elmer Biosignal
T7 sequence (P35372 whole entry): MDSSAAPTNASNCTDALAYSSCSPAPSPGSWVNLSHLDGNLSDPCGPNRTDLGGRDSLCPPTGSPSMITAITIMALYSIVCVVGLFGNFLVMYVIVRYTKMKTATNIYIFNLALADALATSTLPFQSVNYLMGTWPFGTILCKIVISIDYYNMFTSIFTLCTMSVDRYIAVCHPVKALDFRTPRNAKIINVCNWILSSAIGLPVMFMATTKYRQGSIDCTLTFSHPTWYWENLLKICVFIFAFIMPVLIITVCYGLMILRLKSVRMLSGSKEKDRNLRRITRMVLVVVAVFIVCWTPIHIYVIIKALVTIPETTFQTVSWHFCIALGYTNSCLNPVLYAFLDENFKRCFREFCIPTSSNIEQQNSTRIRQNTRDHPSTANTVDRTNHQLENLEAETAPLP
Outline: as §2

[8] = target: T8, Human melanin-concentrating hormone (MCH1) (Homo sapiens, UniProt Q99705); assay: Radioligand binding, human melanin-concentrating hormone MCH1 membranes, FlashPlate, [125I]-S36057; settings: compound at 10 μM; for A6: inhibition of radioligand binding, human melanin-concentrating hormone (MCH1): [125I]-S36057; for A6: inhibition of radioligand binding: [125I]-S36057, FlashPlate
T8 construct: purchased Perkin Elmer Biosignal
T8 sequence (Q99705 whole entry): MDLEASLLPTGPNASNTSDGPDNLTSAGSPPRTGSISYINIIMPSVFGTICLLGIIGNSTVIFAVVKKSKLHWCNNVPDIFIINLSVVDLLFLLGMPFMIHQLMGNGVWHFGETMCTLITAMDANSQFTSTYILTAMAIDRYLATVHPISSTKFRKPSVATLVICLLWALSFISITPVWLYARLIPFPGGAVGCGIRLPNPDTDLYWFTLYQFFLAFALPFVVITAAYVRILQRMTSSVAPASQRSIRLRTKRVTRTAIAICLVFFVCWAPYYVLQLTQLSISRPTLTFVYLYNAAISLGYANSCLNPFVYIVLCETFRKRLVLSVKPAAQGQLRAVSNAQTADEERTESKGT
Outline: as §2

[9] = target: T9, Human opioid (ORL1) (Homo sapiens, UniProt P41146); assay: Radioligand binding, human opioid ORL1 membranes, FlashPlate, [125I]-Nociceptin; settings: compound at 10 μM; for A10: inhibition of radioligand binding, human opioid (ORL1) / A10: inhibition of radioligand binding: [125I]-Nociceptin; for A10: inhibition of radioligand binding: FlashPlate
T9 construct: purchased Perkin Elmer Biosignal
T9 sequence (P41146 whole entry): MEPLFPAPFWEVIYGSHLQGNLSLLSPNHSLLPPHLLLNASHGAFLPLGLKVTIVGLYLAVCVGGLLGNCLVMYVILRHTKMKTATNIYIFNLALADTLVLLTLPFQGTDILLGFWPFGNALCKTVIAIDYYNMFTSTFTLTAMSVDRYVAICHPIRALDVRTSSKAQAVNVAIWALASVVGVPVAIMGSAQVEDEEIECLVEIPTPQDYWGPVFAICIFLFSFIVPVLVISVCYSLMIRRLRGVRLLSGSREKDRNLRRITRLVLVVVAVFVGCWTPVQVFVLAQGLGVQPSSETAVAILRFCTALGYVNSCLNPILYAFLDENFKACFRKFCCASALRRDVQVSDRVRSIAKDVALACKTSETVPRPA
Outline: as §2

[10] = target: T10, Human Melanocortin (MC4) (Homo sapiens, UniProt P32245); assay: Radioligand binding, human melanocortin MC4 membranes, FlashPlate, [125I]-NDP-αMSH; settings: compound at 10 μM; for A4: inhibition of radioligand binding, human melanocortin (MC4) / A4: inhibition of radioligand binding: [125I]-NDP-αMSH; for A4: inhibition of radioligand binding: FlashPlate
T10 construct: purchased Perkin Elmer Biosignal
T10 sequence (P32245 whole entry): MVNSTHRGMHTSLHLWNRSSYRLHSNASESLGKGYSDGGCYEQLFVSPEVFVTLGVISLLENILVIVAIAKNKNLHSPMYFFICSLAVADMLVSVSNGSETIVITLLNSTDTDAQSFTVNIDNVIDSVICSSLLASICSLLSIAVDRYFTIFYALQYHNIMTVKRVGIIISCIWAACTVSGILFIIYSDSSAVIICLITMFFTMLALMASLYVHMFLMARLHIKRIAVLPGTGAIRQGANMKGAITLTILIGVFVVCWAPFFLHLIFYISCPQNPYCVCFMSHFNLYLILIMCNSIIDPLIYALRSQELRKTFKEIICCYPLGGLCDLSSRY
Outline: as §2

[11] = target: T11, Human Melanocortin (MC3) (Homo sapiens, UniProt P41968); assay: Radioligand binding, human melanocortin MC3 membranes, FlashPlate, [125I]-NDP-αMSH; settings: compound at 10 μM; for A3: inhibition of radioligand binding, human melanocortin (MC3) / A3: inhibition of radioligand binding: [125I]-NDP-αMSH; for A3: inhibition of radioligand binding: FlashPlate
T11 construct: purchased Perkin Elmer Biosignal
T11 sequence (P41968 whole entry): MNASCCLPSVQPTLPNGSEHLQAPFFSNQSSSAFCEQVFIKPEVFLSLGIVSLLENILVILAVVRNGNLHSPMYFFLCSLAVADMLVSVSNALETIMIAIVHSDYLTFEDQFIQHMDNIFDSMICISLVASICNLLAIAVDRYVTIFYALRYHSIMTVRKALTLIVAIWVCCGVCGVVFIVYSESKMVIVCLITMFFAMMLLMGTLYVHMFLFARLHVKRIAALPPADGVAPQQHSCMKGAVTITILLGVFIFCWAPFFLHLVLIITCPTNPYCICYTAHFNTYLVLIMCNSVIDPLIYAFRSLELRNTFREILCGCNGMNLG
Outline: as §2

| Structure (SMILES) | A11: inhibition of radioligand binding, mouse urotensin (mUR2) [1] | A8: inhibition of radioligand binding, human neurokinin (NK1) [2] | A5: inhibition of radioligand binding, human melanocortin (MC5) [3] | A2: inhibition of radioligand binding, human κ-opioid (KOP) [4] | A1: inhibition of radioligand binding, human δ-opioid (DOP) [5] | A9: inhibition of radioligand binding, human neuropeptide Y (NPY-Y1) [6] | A7: inhibition of radioligand binding, human μ-opioid (MOP) [7] | A6: inhibition of radioligand binding, human melanin-concentrating hormone (MCH1) [8] | A10: inhibition of radioligand binding, human opioid (ORL1) [9] | A4: inhibition of radioligand binding, human melanocortin (MC4) [10] | A3: inhibition of radioligand binding, human melanocortin (MC3) [11] | A11: inhibition of radioligand binding [1] | A8: inhibition of radioligand binding [2] | A5: inhibition of radioligand binding [3] | A2: inhibition of radioligand binding [4] | A1: inhibition of radioligand binding [5] | A9: inhibition of radioligand binding [6] | A7: inhibition of radioligand binding [7] | A6: inhibition of radioligand binding [8] | A10: inhibition of radioligand binding [9] | further results |
| --- | --- | --- | --- | --- | --- | --- | --- | --- | --- | --- | --- | --- | --- | --- | --- | --- | --- | --- | --- | --- | --- |
| CSC1O[C@H](COCc2ccc(-c3ccccc3)cc2)[C@@H](O)[C@@H](OCc2ccc(-c3ccccc3)cc2)[C@H]1NC(=O)CCNC(=N)N (stereo partly shown) [compound 293] | − (“−” indicates less than 50% inhibition at 10 μM) | + (“+” indicates greater than 50% inhibition at 10 μM) | − (“−” indicates less than 50% inhibition at 10 μM) | − (“−” indicates less than 50% inhibition at 10 μM) | − (“−” indicates less than 50% inhibition at 10 μM) | − (“−” indicates less than 50% inhibition at 10 μM) | − (“−” indicates less than 50% inhibition at 10 μM) | − (“−” indicates less than 50% inhibition at 10 μM) | − (“−” indicates less than 50% inhibition at 10 μM) | − (“−” indicates less than 50% inhibition at 10 μM) | − (“−” indicates less than 50% inhibition at 10 μM) | – | – | – | – | – | – | – | – | – | – |
| CSC1O[C@H](COCc2ccc3ccccc3c2)[C@@H](O)[C@@H](OCc2ccc(Cl)cc2)[C@H]1NC(=O)CCN (stereo partly shown) [compound 282] | – | – | – | – | – | – | – | – | – | – | – | − (“−” indicates less than 50% inhibition at 10 μM) | + (“+” indicates greater than 50% inhibition at 10 μM) | − (“−” indicates less than 50% inhibition at 10 μM) | − (“−” indicates less than 50% inhibition at 10 μM) | − (“−” indicates less than 50% inhibition at 10 μM) | − (“−” indicates less than 50% inhibition at 10 μM) | − (“−” indicates less than 50% inhibition at 10 μM) | − (“−” indicates less than 50% inhibition at 10 μM) | − (“−” indicates less than 50% inhibition at 10 μM) | A4: inhibition of radioligand binding [10]: + (“+” indicates greater than 50% inhibition at 10 μM); A3: inhibition of radioligand binding [11]: − (“−” indicates less than 50% inhibition at 10 μM) |
| CSC1OC(COCc2ccc(Cl)cc2)C(O)C(OCc2ccc3ccccc3c2)C1NC(=O)CCN (stereo not shown) [compound 308] | − (“−” indicates less than 50% inhibition at 10 μM) | + (“+” indicates greater than 50% inhibition at 10 μM) | − (“−” indicates less than 50% inhibition at 10 μM) | − (“−” indicates less than 50% inhibition at 10 μM) | − (“−” indicates less than 50% inhibition at 10 μM) | − (“−” indicates less than 50% inhibition at 10 μM) | − (“−” indicates less than 50% inhibition at 10 μM) | − (“−” indicates less than 50% inhibition at 10 μM) | − (“−” indicates less than 50% inhibition at 10 μM) | − (“−” indicates less than 50% inhibition at 10 μM) | − (“−” indicates less than 50% inhibition at 10 μM) | – | – | – | – | – | – | – | – | – | – |
| CO[C@H]1[C@H](O)[C@@H](COCc2ccc(-c3ccccc3)cc2)OC(OCc2ccc(-c3ccccc3)cc2)[C@@H]1NC(=O)CCNC(=N)N (stereo partly shown) [compound 52] | – | – | – | – | – | – | – | – | – | – | – | – | – | – | – | – | – | – | – | – | A11 radioligand binding inhibition ([1]; mouse urotensin mUR2 membranes): − (“−” indicates less than 50% inhibition at 10 μM); A8 radioligand binding inhibition ([2]; human neurokinin NK1 membranes): + (“+” indicates greater than 50% inhibition at 10 μM); A5 radioligand binding inhibition ([3]; human melanocortin MC5 membranes): + (“+” indicates greater than 50% inhibition at 10 μM); A2 radioligand binding inhibition ([4]; human κ-opioid (KOP) membranes): − (“−” indicates less than 50% inhibition at 10 μM); A1 radioligand binding inhibition ([5]; human δ-opioid (DOP) membranes): − (“−” indicates less than 50% inhibition at 10 μM); A9 radioligand binding inhibition ([6]; human NPY-Y1 membranes): − (“−” indicates less than 50% inhibition at 10 μM); A7 radioligand binding inhibition ([7]; human μ-opioid (MOP) membranes): + (“+” indicates greater than 50% inhibition at 10 μM); A6 radioligand binding inhibition ([8]; human MCH1 membranes): + (“+” indicates greater than 50% inhibition at 10 μM); A10 radioligand binding inhibition ([9]; human ORL1 membranes): + (“+” indicates greater than 50% inhibition at 10 μM); A4 radioligand binding inhibition ([10]; human melanocortin MC4 membranes): + (“+” indicates greater than 50% inhibition at 10 μM); A3 radioligand binding inhibition ([11]; human melanocortin MC3 membranes): + (“+” indicates greater than 50% inhibition at 10 μM) |
| CSC1O[C@H](COCc2ccc3ccccc3c2)[C@@H](O)[C@@H](OCc2ccc(Cl)cc2)[C@H]1NC(=O)CNC(=N)N (stereo partly shown) [compound 281] | – | – | – | – | – | – | – | – | – | – | – | − (“−” indicates less than 50% inhibition at 10 μM) | + (“+” indicates greater than 50% inhibition at 10 μM) | + (“+” indicates greater than 50% inhibition at 10 μM) | − (“−” indicates less than 50% inhibition at 10 μM) | − (“−” indicates less than 50% inhibition at 10 μM) | − (“−” indicates less than 50% inhibition at 10 μM) | − (“−” indicates less than 50% inhibition at 10 μM) | − (“−” indicates less than 50% inhibition at 10 μM) | − (“−” indicates less than 50% inhibition at 10 μM) | A4: inhibition of radioligand binding [10]: + (“+” indicates greater than 50% inhibition at 10 μM); A3: inhibition of radioligand binding [11]: + (“+” indicates greater than 50% inhibition at 10 μM) |

Source: patent US20080009418A1, “Selective Inhibitors” (Alchemia LTD., priority 2004, published 2008)
